Holding throughout (test): NCI tumour cell line growth inhibition, 48 h
Assay [1] has as its system COLO 205.
Assay [2] relates to EKVX.
The subject of assay [3] is HCC 2998.
For assay [4], the system named is HCT-116.
For assay [5], the system named is HL-60.
Assay [6] relates to HOP-18.
Assay [7] has as its system HOP-92.
The subject of assay [8] is LOX IMVI.
Assay [9] has as its system NCI-H23.
For assay [10], the system named is NCI-H460.
Assay [11] concerns NCI-H522.
In assay [12] the test system is RPMI-8226.
The test system of assay [13] is SK-MEL-2.
Assay [14] relates to SNB-75.
Assay [15] deals with UACC-257.

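Assay format: 96-well plates, 48-hour exposure. GI50 = concentration required for 50% inhibition of growth.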 The source made the active and inactive calls. Rule as the data show it: active = GI50 up to about 1.1 µM and inactive = higher.

The text below walks through data of ChEMBL document CHEMBL1201862, “PubChem BioAssay data set” (2004).

As to `CC(=O)OC(C)(C)/C=C/C(=O)[C@](C)(O)[C@H]1[C@H](O)C[C@@]2(C)[C@@H]3CC=C4[C@@H](C[C@H](O)[C@H](O)C4(C)C)[C@]3(C)C(=O)C[C@]12C`, the GI50 is 0.31 µM (active) in [1]; 0.601 µM (active) in [2]; 0.822 µM (active) in [3]; 0.277 µM (active) in assay [4]; 0.243 µM (active) in assay [5]; 1.05 µM (active) in assay [6]. For the same compound, the GI50 in [7] was 0.22 µM (active); in assay [8], 0.303 µM (active); in [9] it was 0.324 µM (active); in assay [10] it was 1.07 µM (active); in assay [11] it was 0.259 µM (active); in assay [12], 0.107 µM (active). Also, the GI50 in assay [13] was 0.752 µM (active); in assay [14] it was 0.261 µM (active); in assay [15], 0.638 µM (active).
Turning to `C/C(O)=C1\CC2CN3CCc4c([nH]c5ccccc45)C3CC2CC1=O` (centres undefined), the GI50 is > 100 µM (inactive) in assay [1]; 37 µM (inactive) in assay [2]; 58.9 µM (inactive) in assay [3]; 52.1 µM (inactive) in assay [4]; 32.7 µM (inactive) in [5]; 52.8 µM (inactive) in assay [6]. Further, the GI50 in assay [8] is 26.1 µM (inactive); in assay [9], 92 µM (inactive); in assay [10], > 100 µM (inactive); in [11], 65.6 µM (inactive); in [13], 43 µM (inactive); in assay [14], 21.4 µM (inactive). Besides, the GI50 in assay [15] is > 100 µM (inactive).
As for `CC(C)(C)N/N=C(\C(=O)Nc1nnc(S)[nH]1)C1C(=O)Nc2ccccc2[S+]1[O-]` (centres undefined), the GI50 in assay [1], in assay [2], in [3], in [4], in assay [5] and in [6] was > 100 µM (inactive) throughout. Moreover, the GI50 in assay [8], in assay [9], in [10], in [11], in [12] and in [13] was > 100 µM (inactive) in each case. Moreover, the GI50 in assay [14] and in assay [15] was > 100 µM (inactive) in each case.
For `CCOC(=O)c1nn2c(nc1=O)sc1ccc3ccccc3c12`, the GI50 in assay [1], in assay [2], in [3], in [4], in assay [5] and in [6] was > 100 µM (inactive) throughout. The GI50 in assay [7], in assay [8], in [9], in assay [10], in assay [12] and in assay [13] was > 100 µM (inactive) each time. Moreover, the GI50 in assay [14] and in assay [15] was > 100 µM (inactive) throughout.
`O=C(NC(=O)c1cc2cc(Br)cc(Br)c2oc1=O)Oc1ccccc1`: the GI50 in assay [1], in assay [2], in assay [3], in assay [4], in assay [6] and in [7] was > 100 µM (inactive) each time. Also, the GI50 was 63.2 µM (inactive) in assay [8]; > 100 µM (inactive) in assay [9]; > 100 µM (inactive) in assay [10]; > 100 µM (inactive) in assay [12]; 13.7 µM (inactive) in [14]; 59.2 µM (inactive) in [15].
In the case of `COc1ccc(C2S/C(=C\c3ccccc3)C(=O)N2NC(=O)Cc2ccccc2)cc1` (centres undefined), the GI50 is > 100 µM (inactive) in assay [1]; > 100 µM (inactive) in assay [4]; 55.8 µM (inactive) in assay [5]; > 100 µM (inactive) in assay [6]; > 100 µM (inactive) in [7]; > 100 µM (inactive) in assay [8]. Also, the GI50 in [9], in [10], in [11], in assay [12], in [13] and in assay [14] was > 100 µM (inactive) in each case. Besides, the GI50 in assay [15] was > 100 µM (inactive).
As to `COC(=O)[C@H]1COC(=S)N1C(=O)[C@@H](C)[C@H](O)C(C)C`, the GI50 in [1], in [2], in assay [3], in [4], in [5] and in assay [6] was > 100 µM (inactive) in each case. Also, the GI50 is > 100 µM (inactive) in assay [7]; 57.4 µM (inactive) in assay [8]; > 100 µM (inactive) in [9]; > 100 µM (inactive) in [10]; > 100 µM (inactive) in assay [12]; > 100 µM (inactive) in assay [13]. Also, the GI50 was 42 µM (inactive) in assay [14] and > 100 µM (inactive) in [15].
`O=C(CCc1nnc(S)[nH]1)Nc1cc(Cl)ccc1Cl`: the GI50 in assay [1], in assay [2], in [3], in [4], in assay [5] and in assay [6] was > 100 µM (inactive) in each case. For the same compound, the GI50 in assay [7], in assay [9], in [10], in [11], in [12] and in [13] was > 100 µM (inactive) throughout. The results for the GI50 in assay [14] and in [15] were 37.9 µM (inactive) and > 100 µM (inactive), respectively.
Consider `COC(=O)C(C(=O)C(=O)Nc1ccc(N)cc1[N+](=O)[O-])c1nc2ccc(Cl)cc2nc1O` (centres undefined), for which the GI50 is > 100 µM (inactive) in assay [1]; > 100 µM (inactive) in [2]; > 100 µM (inactive) in assay [3]; > 100 µM (inactive) in assay [4]; > 100 µM (inactive) in assay [5]; 72.3 µM (inactive) in assay [6]. The GI50 is 52.7 µM (inactive) in [7]; > 100 µM (inactive) in assay [8]; > 100 µM (inactive) in assay [9]; > 100 µM (inactive) in assay [10]; > 100 µM (inactive) in assay [12]; > 100 µM (inactive) in assay [13]. For the same compound, the GI50 in assay [14] was 32.4 µM (inactive); in assay [15] it was > 100 µM (inactive).
In the case of `C[C@]12CCc3nonc3C1CC[C@@H]1C2CC[C@]2(C)NC(=O)CCC12` (some centres undefined), the GI50 in assay [1], in assay [2], in assay [4], in assay [5], in assay [6] and in [7] was > 100 µM (inactive) in each case. For the same compound, the GI50 in assay [8], in assay [9], in assay [10], in assay [11], in [12] and in [13] was > 100 µM (inactive) in each case. Further, the GI50 in assay [14] and in [15] was > 100 µM (inactive) each time.
For the compound `COC(=O)C(c1n[nH]c2ccccc12)C(C(=O)OC)c1n[nH]c2ccccc12` (centres undefined), the GI50 was > 100 µM (inactive) in assay [2]; > 100 µM (inactive) in [3]; 41.4 µM (inactive) in assay [4]; 16 µM (inactive) in assay [5]; 59.2 µM (inactive) in assay [6]; 68.2 µM (inactive) in assay [8]. Also, the GI50 in assay [9] was 30.9 µM (inactive); in assay [10] it was 58.3 µM (inactive); in [12], 13.5 µM (inactive); in assay [14], 50.1 µM (inactive); in assay [15] it was 54.7 µM (inactive).
For `Cc1c(C(=O)CC(=O)C(=O)Nc2ccc(Cl)cc2)[n+]([O-])c2ccccc2[n+]1[O-]`, the GI50 is > 100 µM (inactive) in [1]; > 100 µM (inactive) in assay [2]; > 100 µM (inactive) in [4]; > 100 µM (inactive) in assay [5]; 75 µM (inactive) in assay [6]; > 100 µM (inactive) in assay [7]. Moreover, the GI50 in [9] is > 100 µM (inactive); in assay [10], > 100 µM (inactive); in [11] it was > 100 µM (inactive); in [12] it was > 100 µM (inactive); in assay [13], > 100 µM (inactive); in [14], 18.7 µM (inactive). Besides, the GI50 in assay [15] was > 100 µM (inactive).
As for `ClCCNCCNCCCl.ClCCNCCNCCCl.[O-][Cl+3]([O-])([O-])O`, the GI50 was 40.7 µM (inactive) in assay [1]; > 100 µM (inactive) in assay [2]; > 100 µM (inactive) in assay [3]; 27.5 µM (inactive) in [4]; 30.3 µM (inactive) in assay [5]; 24.3 µM (inactive) in assay [6]. The GI50 in assay [7] was 39.7 µM (inactive); in assay [8], 20 µM (inactive); in [9] it was 27.9 µM (inactive); in [10], 22.3 µM (inactive); in assay [11] it was 11.4 µM (inactive); in assay [12], 33.3 µM (inactive). Further, the GI50 in assay [13] was 21.4 µM (inactive); in [14], 19 µM (inactive); in assay [15] it was 27 µM (inactive).
On to `COc1ccc2c(c1)CN1CCc3c(cc(OC)c(OC)c3OC)C1C2` (centres undefined), for which the GI50 in assay [1] is > 100 µM (inactive); in [2], > 100 µM (inactive); in assay [3], > 100 µM (inactive); in assay [4], > 100 µM (inactive); in assay [5], 41.5 µM (inactive); in assay [6], > 100 µM (inactive). Also, the GI50 in assay [7] was > 100 µM (inactive); in assay [9], > 100 µM (inactive); in assay [11], > 100 µM (inactive); in [12], 38.4 µM (inactive); in assay [13], > 100 µM (inactive); in assay [14] it was > 100 µM (inactive). In addition, the GI50 in assay [15] was > 100 µM (inactive).
